This note sets out measurements from patent publication EP4585587A1, “PROPIONIC ACID DERIVATIVE AND USE THEREOF IN MEDICINE” (priority 2022, dated 2024).

Molecules are shown by their SMILES. Structures can show the parent of a compound that is named as a salt.

The subject of this assay is integrin α4β1. Put plainly: Integrin α4β1-mediated cell adhesion assay (Jurkat cells on VCAM). The assay is classed as cell-based. Particulars: selectivity ratio of Jurkat (α4β1)/VCAM-1 IC50 to RPMI-8866 (α4β7)/MadCAM-1 IC50. The procedure: VCAM was formulated into a final concentration of 0.5 µg/ml with a coating buffer, 50 µl of the solution was transferred to a 96-well plate, and the plate was coated with same at 4°C overnight. The plate was washed with coating buffer three times, then 150 µl of a blocking solution (coating buffer containing 1% BSA) was added, and the plate was blocked at 37°C for 1 h. Jurkat cells were collected, washed twice using DPBS buffer, and then resuspended to 4 × 10^6 cells/ml with an action buffer. 50 µl of the cell suspension was transferred to a 96-well plate so that the cell density reached 2 × 10^5 cells/well. Then 1 µl of the test compound at different concentration or DMSO was added and the plate was incubated at 37°C for 1 h. The plate was washed with coating buffer to remove non-adherent cells. 50 µl of a substrate (4-nitrophenyl-N-acetyl-β-D-glucosaminide) was added and the plate was incubated at 37°C for 2 h. Finally, 90 µl of a termination solution (50 mM glycine and 5 mM EDTA, pH 10.4) was added. The OD value of the plate was read at 405 nm. • Coating buffer: DMEM+ 20 mM HEPES+ 0.4 mM MnCl2 • Action buffer: DMEM+ 20 mM HEPES+ 0.1% BSA+0.4 mM MnCl2 • DMEM: dulbecco's modified eagle medium; • HEPES: 2-[4-(2-hydroxyethyl)piperazin-1-yl]ethanesulfonic acid Table 1 Results of effects of compounds on α4β7- and α4β1-mediated cell adhesion
Consider `COc1cc(C)c(-c2c(F)c(C(CC(=O)O)NC(=O)C(CC(C)C)n3cc(CCN(C)C)c(C(F)(F)F)cc3=O)c(F)c3c2CCC3)c(C)c1` (single isomer, unassigned) [Trifluoroacetate salt of compound 21-2], for which the α4β1/α4β7 is 1586.
In the case of `COc1cc(C)c(-c2c(F)c(C(CC(=O)O)NC(=O)C(CC(C)C)n3cc(CCN(C)C)c(C(F)(F)F)cc3=O)c(F)c3c2CCC3)c(C)c1` (stereo not shown) [Compound 21-A], the α4β1/α4β7 stood at 119.
Then `Cc1cc(F)cc(C)c1-c1cc(C(CC(=O)O)NC(=O)C(CC(C)C)n2cc(CC3CCN(C(C)C)CC3)c(C(F)(F)F)cc2=O)cc2c1CCC2` (stereo not shown) [Trifluoroacetate salt of compound 22-2], with 307; and `Cc1cc(F)cc(C)c1-c1c(F)c(C(CC(=O)O)NC(=O)C(CC(C)C)n2cc(CCC3CCN(C)C3)c(C(F)(F)F)cc2=O)c(F)c2c1CCC2` (stereo not shown) [Trifluoroacetate salt of compound 26-2], with 177.
